According to patent publication US8299111B2, “Compounds which modulate the CB2 receptor” (Boehringer Ingelheim International GmbH, priority 2006, dated 2012):

Target: T1, human CB2R (Homo sapiens, UniProt P34972)
T1 construct: host or cells: CHO cells
Experiment: CB2R mediated modulation of cAMP synthesis
Format: cell-based
Conditions: found through the use of the above described assays (binding and cAMP); CHO cells expressing human CB2R, forskolin-stimulated cAMP
Summary of the method: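 EC50 values reflect inhibition of cAMP made in response to 10 uM forskolin (with 1 mM IBMX, 0.25% BSA) over 30 min at 37 °C in human CB2R-expressing CHO cells. The window runs from forskolin alone to 1 uM CP55940; curves fitted with a four-parameter logistic model.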

T1 sequence (P34972 whole entry): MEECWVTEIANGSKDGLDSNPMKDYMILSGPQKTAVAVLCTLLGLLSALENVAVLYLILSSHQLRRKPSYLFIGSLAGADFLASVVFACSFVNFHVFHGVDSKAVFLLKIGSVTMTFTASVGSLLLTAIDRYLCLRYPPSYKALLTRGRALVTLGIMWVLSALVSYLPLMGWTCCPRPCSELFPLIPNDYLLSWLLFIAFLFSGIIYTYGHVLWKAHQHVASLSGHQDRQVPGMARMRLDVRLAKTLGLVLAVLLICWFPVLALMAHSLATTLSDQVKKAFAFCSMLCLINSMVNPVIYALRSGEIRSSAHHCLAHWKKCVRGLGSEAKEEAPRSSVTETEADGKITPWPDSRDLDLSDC

agonistic activity	Compound
agonistic activity	CCc1sc(NC(=O)C(C)(C)S(=O)(=O)c2ccc(C(F)(F)F)nc2)nc1-c1ccccc1 [N-(5-ethyl-4-phenyl-1,3-thiazol-2-yl)-2-methyl-2-{[6-(trifluoromethyl)pyridin-3-yl]sulfonyl}propanamide]
agonistic activity	Cn1nc(C(C)(C)C)cc1NC(=O)C(C)(C)S(=O)(=O)c1ccccc1 [2-Benzenesulfonyl-N-(5-tert-butyl-2-methyl-2H-pyrazol-3-yl)-2-methyl-propionamide]
agonistic activity	CC(C)(C(=O)Nc1cccc(C(F)(F)F)n1)S(=O)(=O)c1ccc(Cl)nc1 [2-(6-Chloro-pyridine-3-sulfonyl)-2-methyl-N-(6-trifluoromethyl-pyridin-2-yl)-propionamide]
agonistic activity	CC(C)(C(=O)Nc1nc(C(F)(F)F)cs1)S(=O)(=O)c1ccc(C(F)(F)F)nc1 [2-methyl-2-{[6-(trifluoromethyl)pyridin-3-yl]sulfonyl}-N-[4-(trifluoromethyl)-1,3-thiazol-2-yl]propanamide]

Compound	agonistic activity
CC(C)(C(=O)Nc1nc(-c2ccc(Cl)cc2)cs1)S(=O)(=O)c1ccc(Cl)cc1 [2-(4-Chloro-benzenesulfonyl)-N-[4-(4-chloro-phenyl)-thiazol-2-yl]-2-methyl-propionamide]	agonistic activity
